The test concerns the target T1, recombinant DPP-4 enzyme D4943 (Homo sapiens, UniProt P27487).
T1 construct: purchased Sigma-Aldrich D4943
As to the kind of experiment: DPP-4 enzyme inhibition, chromogenic substrate Gly-Pro-pNA, absorbance at 405 nm. Format: biochemical. Particulars: 37 °C for 30 min, pH 7.6, dilution range 10^−4 to 10^−11 M. The protocol:
The DDP-4 enzyme inhibitory activities of the synthesised compounds were assessed using protocols similar to those described in the literature. For IC50 values determination, inhibitory assays were carried out using recombinant DPP-4 enzyme D4943, chromogenic substrate Gly-Pro-pNA and buffer system (50 mM Tris-HCl, 50 mM NaCl, 0.01% Triton, pH = 7.6). After short incubation (37 °C for 30 min), the absorbance at 405 nm was measured. The procedure was initially optimised using reference compounds. Each inhibitor was analysed in the dilution range from 10^−4 to 10^−11 M. Certified samples of commercial drugs-inhibitors of DPP-4 (vilda-, sita-, alo- and linagliptin) with known IC50 were used as reference compounds. […] We analysed every compound in the dilution range […] (Table 3).
For the inhibitory assays, we used the substrate Gly-Pro-p-nitroanilide (H-Gly-Pro-pNA HCl, G0513) and recombinant dipeptidyl peptidase-4 enzyme (D4943) that were purchased from Sigma-Aldrich (St. Louis, MO, USA). […] The mixtures were incubated at 37 °C for 30 min, and the absorbance at 405 nm was measured using the microplate reader ChemWell (Awareness Technology Inc., Palm City, FL, USA). DPP-4 inhibitory activities for each test compound were calculated. […]

pIC50: −log10 of the molar value.

In publication PMC8949241, “Design, Synthesis and Biological Evaluation of Neogliptin, a Novel 2-Azabicyclo[2.2.1]heptane-Based Inhibitor of Dipeptidyl Peptidase-4 (DPP-4)” (Pharmaceuticals, 2022) one finds IC50 data, which are given here for one substance.

T1 sequence (P27487 whole entry): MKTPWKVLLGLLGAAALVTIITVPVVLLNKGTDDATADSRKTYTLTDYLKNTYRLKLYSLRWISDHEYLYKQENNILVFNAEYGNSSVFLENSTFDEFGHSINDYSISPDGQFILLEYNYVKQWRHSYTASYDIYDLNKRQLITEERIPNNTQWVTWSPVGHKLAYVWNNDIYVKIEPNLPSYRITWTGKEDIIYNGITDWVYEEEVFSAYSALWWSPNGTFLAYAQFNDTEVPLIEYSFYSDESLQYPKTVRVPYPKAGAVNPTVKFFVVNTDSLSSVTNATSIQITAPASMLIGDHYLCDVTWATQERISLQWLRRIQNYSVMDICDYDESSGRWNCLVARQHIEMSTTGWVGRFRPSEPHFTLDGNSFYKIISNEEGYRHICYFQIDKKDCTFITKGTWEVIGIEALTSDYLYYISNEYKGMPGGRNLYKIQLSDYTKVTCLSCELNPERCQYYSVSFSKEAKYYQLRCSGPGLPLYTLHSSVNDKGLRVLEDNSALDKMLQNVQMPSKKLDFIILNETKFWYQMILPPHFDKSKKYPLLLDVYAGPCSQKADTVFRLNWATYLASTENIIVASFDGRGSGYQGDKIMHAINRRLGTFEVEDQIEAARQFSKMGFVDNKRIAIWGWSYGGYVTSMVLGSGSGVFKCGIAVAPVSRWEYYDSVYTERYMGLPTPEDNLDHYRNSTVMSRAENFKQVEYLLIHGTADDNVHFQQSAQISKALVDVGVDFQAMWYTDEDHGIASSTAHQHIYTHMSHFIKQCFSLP

Take “( 3R,S)-2-[(3R)-3-Amino-4-(2,4,5-trifluorophenyl)butanoyl]-endo-2-azabicyclo[2.2.1]hepnane-3-carbonitrile p-toluenesulpfonate [12c (S-endo): 12d (R-endo), 1:1 mixture]”: the pIC50 (commonly the negative decadic logarithm of the IC50, by convention in mol/L) was under 6.00.
